Consider three compounds from US10335427B2, “Tumor prevention and treatment drug and applications thereof” (priority 2016, dated 2019).

The test system of one experiment is tumor cells. Conditions: cited from earlier work.
The test system of experiment [1] is melanomas, SW480 colorectal cancer and MCF7 breast cancer. The note with it: cited from earlier work.
Another experiment relates to Hela cells. The experiment is described as follows: Hela tumor mass growth in nude mice (tumor weight, inhibition rate). The format is in vivo, Balb/c nude mice. Conditions: i.v. twice every week, 10 times, 8-oxodGTP 500 μg/kg/time, 5-FU 15 mg/kg/time. The procedure: 5×10^6 Hela cells (200 μl) were inoculated subcutaneously into the armpit of nude mice. After growing to a certain size, the tumor mass was reinoculated subcutaneously into the armpit of 24 nude mice, which were then randomly grouped into the 5-FU positive control group, the blank carrier control group, and the 8-oxodGTP group, and on the second day after the second inoculation, these nude mice were dosed intravenously. The 5-FU group was injected at a dose of 15 mg/kg/time, the 8-oxodGTP group was injected at a dose of 500 μg/kg/time, and the carrier control group was injected at an equal volume of blank carrier reagents. The injections were performed twice every week, for a total of 10 times. After the injections, the tumor mass was taken and weighed, so as to calculate the inhibition rate (inhibition rate=(1-T experimental group/C control group)×100%).

On to `Nc1nc(NC2CC2)cc(-c2cccc(Cl)c2Cl)n1` [TH588], for which the “Effect of MTH1 inhibition on tumor cells” value in the experiment on tumor cells is on record as “selectively kill tumor cells”. For the same compound, in experiment [1], the “Effect in nude mice transplantation experiments” value is reported as “therapeutic effects”.
Turning to `O=c1[nH]cc(F)c(=O)[nH]1` [5-FU, 5-fluorouracil], the Tumor weight with Hela cells is 988 ± 436.94 mg. In the experiment on Hela cells (vs blank carrier group), this compound showed an Inhibition rate of 18%.
In the case of `CNc1cc(-c2cccc(Cl)c2Cl)nc(N)n1` [TH287], in the experiment on tumor cells, the “Effect of MTH1 inhibition on tumor cells” value is recorded as “selectively kill tumor cells”.
